Data from patent US12011447B2, “Pharmaceutical composition for treating thyroid cancer comprising tyrosine kinase activity inhibitor as active ingredient” (Kyungpook National University Industry-Academic Cooperation …, priority 2017, dated 2024).
Entries after “also recorded” stand apart in the source; their conditions may differ.

What was measured:
NIS = assay: Immunohistochemistry of NIS in tumor tissue; assay type: in vivo, Balb/c nude mice; settings: xenograft tumor sections
Text: At the end of the experiment, the mice were sacrificed, and the tumors were isolated from the mouse's right flank and fixed overnight with 4% formalin. The isolated tumors were embedded in paraffin, sectioned to a 4-μm thickness, and mounted on slides. The tumor sections on the slides were de-paraffinized and stained with hematoxylin & eosin. For immunohistochemistry, NIS (Thermo Fisher Scientific; diluted at 1:200) and cleaved caspase-3 (Cell signaling; diluted at 1:200) antibodies were used.

[1] = test system: NIS (sodium iodide symporter); assay: Western blot of endogenous NIS protein (total, membrane, cytosolic); assay type: cell-based, human
Experimental: (§1) 8505C-PNIS-PCMV cells were treated with TKI-0266 and incubated for 24 hours, and then the cell pellet was washed twice with cold phosphate-buffered saline (hereinafter referred to as PBS). An RIPA buffer (Thermo Fisher Scientific, USA) containing a protease/phosphatase cocktail inhibitor kit (Thermo Fisher Scientific) was added to the cell pellet to lyse the cells. The lysed cells were gently vortexed three times at a time interval, and centrifuged at 13000xg at 4° C. to isolate a soluble protein. The isolated protein was quantified using a BCA protein assay kit (Thermo Fisher Scientific).
Membrane protein and cytosolic protein were isolated using Mem-PET™ plus kit (Thermo Fisher scientific) according to the manufacturer's protocols. Briefly, the collected cell pellet was washed with a cell wash solution and centrifuged at 300xg for 5 minutes, and this washing and centrifugation process was repeated two times. After centrifugation, the supernatant was discarded, and a permeabilization buffer was added to the cell pellet, followed by vortexing. Thereafter, the cell pellet was left to stand at 4° C. for 10 minutes with continuous stirring. After centrifugation, the supernatant containing cytosolic protein was collected, and a solubilization buffer was added to the remaining cell pellet which was then left to stand at 4° C. for 10 minutes with continuous stirring. After centrifugation again at 300xg for 5 minutes, the membrane protein was transferred into a fresh tube.
(§2) Equal amounts of proteins were separated by 10% SDS-PAGE (sodium dodecyl sulfate-polyacrylamide gel electrophoresis), and then the proteins were transferred to PVDF membranes (Millipore, USA). The PVDF membrane was blocked with 3% BSA (bovine serum albumin) in TBS containing Tween-20 (TBS-T) for 1 hour, and incubated with primary antibodies in 0.5% BSA overnight at 4° C. The next day, the PVDF membrane was incubated with HRP-conjugated secondary antibodies at room temperature for 1 hour, and washed three times with TBS-T. The protein bands were visualized using ECL detection reagent (GE Healthcare Life Sciences, Italy) and the Fusion FX chemiluminescence analyzer system (Vilber lourmat, France). […]

[2] = test system: anaplastic thyroid cancer xenograft (8505C-PNIS-PCMV); assay: In vivo 99mTc-pertechnetate gamma camera imaging; parameters: species or system Balb/c nude mice; settings: for 99mTc-pertechnetate uptake (tumor ROI normalized to background), FIG. 16B: 50 mg/kg
Experimental: Female Balb/c nude mice, 5.5-week old with an average weight of 18.9±0.37 g (mean±standard deviation [SD]), were purchased (Hamamatsu, Shizuoka, Japan). The mice were acclimated under specific pathogen-free conditions for one week before starting the experiment, and were maintained at a temperature of 20 to 25° C. and a relative humidity of 40 to 70%. To establish anaplastic thyroid cancer xenograft mouse models, 8505C-PNIS-PCMV s (5×10^6) were mixed with Matrigel (Corning) at a ratio of 1:1 and injected subcutaneously into the right flank region of each mouse.
When the injected 8505C-PNIS-PCMV cells grew to a size of about 50 mm^3, the mice were divided into two groups (n=5): a vehicle group; and a TKI-0266-administered group (50 mg/kg) injected with TKI-0266 by intraperitoneal injection every day for 5 days. To acquire gamma-camera images, 18.5 to 22.2 MBq ^99mTc-pertechnetate was administered to all the mice by intravenous injection. Whole body pinhole gamma camera imaging using a 2-mm pinhole collimator was acquired by infinia II gamma camera (GE Healthcare, USA). During the experiment, the mice were maintained under anesthesia with isoflurane (Forane, ChoongWae Co., Ltd., Korea). In order to estimate the count value, quantitative analysis was performed by quantifying the regions of interest (hereinafter referred to as ROI) in the mouse tumor region. Finally, in order to confirm the pertechnetate absorbed into the tumor, normalization was performed with a background activity ROI of the same size in the mouse head region.

p-AKT = assay: Western blot of phosphorylated AKT; assay type: cell-based, human; settings: 8505C-PNIS-PCMV cells
Experimental: as §1, §2

8505C cells = assay: 131I clonogenic assay; assay type: cell-based, human
Experimental: 8505C cells (4×10^5) cells were seeded in a six-well plate, and then treated with TKI-0266 and incubated for 24 hours. Next, the medium was removed, and the cells were washed twice with bHBSS, and then incubated in the presence or absence of 50 μCi/ml ^131I (KIRAMS, Korea) containing 30 μM NaI for 7 hours at 37° C. After incubation, the cells were washed twice with bHBSS, re-seeded in a new six-well plate at a density of 1,000 cells/well, and then incubated for 7 days to induce colony formation. On day 7, the medium was removed and the cells were washed twice with PBS. A fixation buffer containing acetic acid:methanol at a ratio of 1:7 was added to the cells and the plate was left to stand at room temperature for 5 minutes to fix colonies. The fixed colonies were stained with 0.05% crystal violet for 1 hour and immersed in tap water to remove crystal violet. The colonies containing 50 or more cells were counted. Percentage inhibition was calculated as the number of colonies formed in the TKI-0266-treated group relative to the vehicle control.

p-ERK = assay: Western blot of phosphorylated ERK; assay type: cell-based, human; settings: 8505C-PNIS-PCMV cells
Experimental: as §1, §2

Q: How did the “expression of NIS-specific protein in tumor tissue (immunohistochemistry)” value (NIS) turn out when `Cc1cc2c(N(C)C3CCCCC3)ncnc2s1` [TKI-0266] was run?
A: high

Q: And the “expression of endogenous NIS protein” value ([1]; 8505C-PNIS-PCMV cells, 24 hours, Western blot)?
A: significantly increased

Q: And the “treatment concentration with the highest NIS protein expression” value ([1]; 8505C-PNIS-PCMV cells, Western blot)?
A: 12.5 µM

Q: What about the “expression of cytosolic NIS protein” value ([1]; cytosolic protein fraction) of the same compound?
A: uptick

Q: And the “expression of membrane NIS protein” value ([1]; membrane protein fraction)?
A: increased mainly in the cell membrane

Q: What about the “99mTc-pertechnetate accumulation in the cancer cells (radioisotope uptake)” value ([2]; 50 mg/kg every day for 5 days) of the same compound?
A: significantly increased; also recorded: the best

Q: And the “99mTc-pertechnetate uptake (tumor ROI normalized to background), FIG. 16B” value ([2]; day 0)?
A: 0.852±0.210

Q: And the “99mTc-pertechnetate uptake (tumor ROI normalized to background), FIG. 16B” value ([2]; day 6)?
A: 1.21±0.24

Q: What about the “level of phosphorylated-AKT (p-AKT) protein vs vehicle” value (p-AKT) of the same compound?
A: little difference

Q: And the “colony-forming ability compared to vehicle group” value (8505C cells; TKI-0266 alone)?
A: decreased

Q: And the “colony-forming ability compared to vehicle, 131I-treated and TKI-0266-treated groups” value (8505C cells; co-treated with 131I and TKI-0266)?
A: significantly decreased

Q: And the “level of phosphorylated ERK (p-ERK) protein” value (p-ERK)?
A: significantly decreased
